Measurements as given in patent publication US20120252852A1 (SANOFI, priority 2011, published 2012).

Key:
[1] = Level of impurities in dependency on Otamixaban concentration and autoclaving (HPLC); assay type: physicochemical; details: pH 4.2; 50 mg/mL; vial 5 mL; 20 min 123° C.; 3 autoclaving
Experimental: Liquid pharmaceutical compositions were prepared containing 1, 5 or 50 mg/mL
The appropriate pH value was adjusted by using sodium hydroxide solution (1 M sodium hydroxide) or diluted hydrochloric acid (1 M hydrochloric acid).

[2] = Level of impurities in dependency on pH and storage time (1 mg/mL, autoclaved one time, stored at 40° C. and 75% RH, HPLC); assay type: physicochemical
Experimental: The appropriate pH value was adjusted by using sodium hydroxide solution (1 M sodium hydroxide) or diluted hydrochloric acid (1 M hydrochloric acid). The prepared vials were autoclaved one time and were stored at 40° C. and 75% RH (relative humidity).

[3] = Level of impurities in dependency on citric acid (22.8 mmol/L) and storage time (1 mg/mL, autoclaved once, 40° C. and 75% RH, HPLC); assay type: physicochemical
Experimental: The prepared vials were autoclaved once and were stored at 40° C. and 75% RH (relative humidity).

free factor Xa = free factor Xa (Homo sapiens, UniProt P00742); details: cited from earlier work
Chain of free factor Xa (P00742 235-488 limits assumed): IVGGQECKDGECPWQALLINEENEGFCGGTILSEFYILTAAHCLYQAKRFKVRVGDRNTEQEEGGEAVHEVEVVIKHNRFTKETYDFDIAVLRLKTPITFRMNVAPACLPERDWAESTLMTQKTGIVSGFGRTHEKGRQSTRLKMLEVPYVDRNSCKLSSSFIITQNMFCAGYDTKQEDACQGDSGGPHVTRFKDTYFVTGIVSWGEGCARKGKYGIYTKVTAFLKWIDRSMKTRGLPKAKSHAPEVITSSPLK
Chain of free factor Xa (P00742 41-179 partner limits assumed): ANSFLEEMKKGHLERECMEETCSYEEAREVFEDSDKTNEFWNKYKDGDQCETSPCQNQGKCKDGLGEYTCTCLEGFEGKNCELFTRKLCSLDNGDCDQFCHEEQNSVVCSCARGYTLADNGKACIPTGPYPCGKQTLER

[4] = biological target: factor Xa assembled in the prothrombinase complex (Factor Xa, Factor Va, calcium and phospholipid) (Homo sapiens, UniProt P00742); details: cited from earlier work
Chain of factor Xa assembled in the prothrombinase complex (Factor Xa, Factor Va, calcium and phospholipid) (P00742 235-488 limits assumed): as the sequence (P00742 235-488 limits assumed) above
Chain of factor Xa assembled in the prothrombinase complex (Factor Xa, Factor Va, calcium and phospholipid) (P00742 41-179 limits assumed): as the sequence (P00742 41-179 partner limits assumed) above
Chain of factor Xa assembled in the prothrombinase complex (Factor Xa, Factor Va, calcium and phospholipid) (P12259 29-737 partner limits assumed): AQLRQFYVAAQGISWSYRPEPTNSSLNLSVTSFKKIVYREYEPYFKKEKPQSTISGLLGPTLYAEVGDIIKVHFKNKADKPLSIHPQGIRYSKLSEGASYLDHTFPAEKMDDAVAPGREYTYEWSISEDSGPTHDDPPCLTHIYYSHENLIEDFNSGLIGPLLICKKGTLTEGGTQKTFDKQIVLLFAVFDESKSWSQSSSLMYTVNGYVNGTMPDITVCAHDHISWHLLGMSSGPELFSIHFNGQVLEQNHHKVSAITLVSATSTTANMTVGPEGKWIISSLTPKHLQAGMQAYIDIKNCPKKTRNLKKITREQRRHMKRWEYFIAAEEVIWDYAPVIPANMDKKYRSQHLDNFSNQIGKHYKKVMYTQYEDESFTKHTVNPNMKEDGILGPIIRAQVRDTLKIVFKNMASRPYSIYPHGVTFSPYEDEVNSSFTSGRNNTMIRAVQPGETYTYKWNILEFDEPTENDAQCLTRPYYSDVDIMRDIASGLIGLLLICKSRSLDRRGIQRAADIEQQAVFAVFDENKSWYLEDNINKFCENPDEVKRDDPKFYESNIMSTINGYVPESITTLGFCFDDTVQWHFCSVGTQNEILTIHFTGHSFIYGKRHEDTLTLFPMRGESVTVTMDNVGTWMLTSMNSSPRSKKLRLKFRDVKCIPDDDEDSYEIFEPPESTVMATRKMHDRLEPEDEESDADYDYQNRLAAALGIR
Chain of factor Xa assembled in the prothrombinase complex (Factor Xa, Factor Va, calcium and phospholipid) (P12259 1574-2224 partner limits assumed): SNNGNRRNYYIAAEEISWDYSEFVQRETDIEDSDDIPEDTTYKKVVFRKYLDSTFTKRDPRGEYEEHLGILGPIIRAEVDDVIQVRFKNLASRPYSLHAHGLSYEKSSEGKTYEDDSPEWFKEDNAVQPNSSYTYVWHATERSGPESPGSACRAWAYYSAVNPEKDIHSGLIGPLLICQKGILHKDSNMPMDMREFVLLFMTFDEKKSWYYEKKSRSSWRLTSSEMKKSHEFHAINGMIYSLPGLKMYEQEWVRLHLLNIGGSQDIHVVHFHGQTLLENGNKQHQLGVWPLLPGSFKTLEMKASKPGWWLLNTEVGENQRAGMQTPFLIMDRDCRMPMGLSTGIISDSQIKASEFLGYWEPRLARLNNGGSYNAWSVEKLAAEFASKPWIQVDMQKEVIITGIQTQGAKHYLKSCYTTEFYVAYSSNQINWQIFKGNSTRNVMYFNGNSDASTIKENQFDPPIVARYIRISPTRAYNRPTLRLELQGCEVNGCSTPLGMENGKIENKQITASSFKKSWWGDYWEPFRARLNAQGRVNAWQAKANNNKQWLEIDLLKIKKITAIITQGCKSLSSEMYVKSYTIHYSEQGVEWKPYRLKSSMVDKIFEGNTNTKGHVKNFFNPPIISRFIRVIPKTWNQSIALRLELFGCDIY

thrombosis = details: rodent, canine and porcine models; cited from earlier work
[5] = humans; cited from earlier work
[6] = test system: prothrombin fragments 1+2; details: highest dose regimen; versus unfractionated heparin; cited from earlier work
factor Xa = biological target: T1, factor Xa (Homo sapiens, UniProt P00742); details: patients with stable coronary artery disease taking usual comedication; cited from earlier work
T1 construct: host or cells: blood of patients (in vivo / ex vivo)
T1 sequence (P00742 235-488 limits assumed): as the sequence (P00742 235-488 limits assumed) above
T1 sequence (P00742 41-179 limits assumed): as the sequence (P00742 41-179 partner limits assumed) above

Structure (SMILES): COC(=O)[C@H](Cc1cccc(C(=N)N)c1)[C@@H](C)NC(=O)c1ccc(-c2cc[n+]([O-])cc2)cc1 (mixture of isomers) [Otamixaban, Methyl (2R,3R)-2-{3-[amino(imino)methyl]benzyl}-3-{[4-(1-oxidopyridin-4-yl)benzoyl]amino}butanoate]
- Increase of Formula III (carbamoyl-benzyl butyric acid methyl ester) [1]: 2.7%
- Level of Formula II versus pH over storage time ([2]; 40° C. and 75% RH): increased faster with lower pH
- Levels of Formula III versus pH over storage time ([2]; 40° C. and 75% RH): parallel at different pH values
- Increase of Formula II (carbamimidoyl-benzyl butyric acid) ([2]; pH 2.5, storage 0 months): 0.33%
- Increase of Formula II (carbamimidoyl-benzyl butyric acid) ([2]; pH 2.5, storage 1 month): 1.47%
- Increase of Formula II (carbamimidoyl-benzyl butyric acid) ([2]; pH 2.5, storage 3 months): 3.73%
- Increase of Formula II (carbamimidoyl-benzyl butyric acid) ([2]; pH 2.5, storage 6 months): 7.10%
- Increase of Formula II (carbamimidoyl-benzyl butyric acid) ([2]; pH 3.0, storage 0 months): 0.18%
- Increase of Formula II (carbamimidoyl-benzyl butyric acid) ([2]; pH 3.0, storage 1 month): 0.58%
- Increase of Formula II (carbamimidoyl-benzyl butyric acid) ([2]; pH 3.0, storage 3 months): 1.39%
- Increase of Formula II (carbamimidoyl-benzyl butyric acid) ([2]; pH 3.0, storage 6 months): 2.61%
- Increase of Formula II (carbamimidoyl-benzyl butyric acid) ([2]; pH 3.2, storage 0 months): 0.15%
- Increase of Formula III (carbamoyl-benzyl butyric acid methyl ester) ([2]; pH 3.2, storage 0 months): 0.76%
- Increase of Formula II (carbamimidoyl-benzyl butyric acid) ([2]; pH 3.2, storage 1 month): 0.41%
- Increase of Formula III (carbamoyl-benzyl butyric acid methyl ester) ([2]; pH 3.2, storage 1 month): 0.85%
- Increase of Formula II (carbamimidoyl-benzyl butyric acid) ([2]; pH 3.2, storage 3 months): 0.93%
- Increase of Formula III (carbamoyl-benzyl butyric acid methyl ester) ([2]; pH 3.2, storage 3 months): 1.00%
- Increase of Formula II (carbamimidoyl-benzyl butyric acid) ([2]; pH 3.2, storage 6 months): 1.74%
- Increase of Formula III (carbamoyl-benzyl butyric acid methyl ester) ([2]; pH 3.2, storage 6 months): 1.24%
- Increase of Formula II (carbamimidoyl-benzyl butyric acid) ([2]; pH 3.5, storage 0 months): 0.12%
- Increase of Formula II (carbamimidoyl-benzyl butyric acid) ([2]; pH 3.5, storage 1 month): 0.27%
- Increase of Formula II (carbamimidoyl-benzyl butyric acid) ([2]; pH 3.5, storage 3 months): 0.55%
- Increase of Formula II (carbamimidoyl-benzyl butyric acid) ([2]; pH 3.5, storage 6 months): 0.99%
- Increase of Formula II (carbamimidoyl-benzyl butyric acid) ([2]; pH 3.7, storage 0 months): 0.11%
- Increase of Formula II (carbamimidoyl-benzyl butyric acid) ([2]; pH 3.7, storage 1 month): 0.22%
- Increase of Formula II (carbamimidoyl-benzyl butyric acid) ([2]; pH 3.7, storage 3 months): 0.42%
- Increase of Formula II (carbamimidoyl-benzyl butyric acid) ([2]; pH 3.7, storage 6 months): 0.72%
- Increase of Formula II (carbamimidoyl-benzyl butyric acid) ([2]; pH 4.0, storage 0 months): 0.12%
- Increase of Formula II (carbamimidoyl-benzyl butyric acid) ([2]; pH 4.0, storage 1 month): 0.18%
- Increase of Formula II (carbamimidoyl-benzyl butyric acid) ([2]; pH 4.0, storage 3 months): 0.32%
- Increase of Formula II (carbamimidoyl-benzyl butyric acid) ([2]; pH 4.0, storage 6 months): 0.52%
- Increase of Formula II (carbamimidoyl-benzyl butyric acid) ([2]; pH 4.2, storage 0 months): 0.13%
- Increase of Formula II (carbamimidoyl-benzyl butyric acid) ([2]; pH 4.2, storage 1 month): 0.18%
- Increase of Formula II (carbamimidoyl-benzyl butyric acid) ([2]; pH 4.2, storage 3 months): 0.27%
- Increase of Formula II (carbamimidoyl-benzyl butyric acid) ([2]; pH 4.2, storage 6 months): 0.43%
- Increase of Formula II (carbamimidoyl-benzyl butyric acid) ([2]; pH 4.5, storage 0 months): 0.15%
- Increase of Formula II (carbamimidoyl-benzyl butyric acid) ([2]; pH 4.5, storage 1 month): 0.20%
- Increase of Formula II (carbamimidoyl-benzyl butyric acid) ([2]; pH 4.5, storage 3 months): 0.30%
- Increase of Formula II (carbamimidoyl-benzyl butyric acid) ([2]; pH 4.5, storage 6 months): 0.44%
- Increase of Formula II (carbamimidoyl-benzyl butyric acid) ([2]; pH 4.7, storage 0 months): 0.20%
- Increase of Formula II (carbamimidoyl-benzyl butyric acid) ([2]; pH 4.7, storage 1 month): 0.25%
- Increase of Formula II (carbamimidoyl-benzyl butyric acid) ([2]; pH 4.7, storage 3 months): 0.36%
- Increase of Formula II (carbamimidoyl-benzyl butyric acid) ([2]; pH 4.7, storage 6 months): 0.52%
- Total impurities ([3]; pH 3.0/3.1 (start/1 month), 1 month): 1.33%
- Total impurities ([3]; pH 3.0/3.1 (start/1 month), start): 0.87%
- Total impurities ([3]; pH 3.6/3.6 (start/1 month), 1 month): 1.06%
- Total impurities ([3]; pH 3.6/3.6 (start/1 month), start): 0.83%
- Total impurities ([3]; pH 4.0/4.1 (start/1 month), 1 month): 1.17%
- Total impurities ([3]; pH 4.0/4.1 (start/1 month), start): 0.98%
- Total impurities ([3]; pH 4.6/4.6 (start/1 month), 1 month): 1.75%
- Total impurities ([3]; pH 4.6/4.6 (start/1 month), start): 1.51%
- Total impurities ([3]; pH 5.1/5.1 (start/1 month), 1 month): 3.80%
- Total impurities ([3]; pH 5.1/5.1 (start/1 month), start): 3.57%
- Total impurities ([3]; pH 6.1/6.1 (start/1 month), 1 month): 28.16%
- Total impurities ([3]; pH 6.1/6.1 (start/1 month), start): 27.12%
- Inhibition of free factor Xa (free factor Xa): inhibited
- Inhibition of factor Xa assembled in the prothrombinase complex [4]: inhibited
- Efficacy in models of thrombosis (thrombosis): highly efficacious
- Clinical efficacy, safety and tolerability [5]: efficacious, safe and well tolerated
- Reduction of prothrombin fragments 1+2 [6]: reduced prothrombin fragments 1+2 significantly more than unfractionated heparin
- Factor Xa inhibition in patients (factor Xa): dose-dependent, rapid direct factor Xa inhibition
